Assay results taken from ChEMBL document CHEMBL1268992, “Kojyl thioether derivatives having both tyrosinase inhibitory and anti-inflammatory properties” (Bioorg Med Chem Lett, 2010).

Assays:
[1] = system: RAW264.7; experiment: cells; details: Mus musculus, RAW264.7, 24 h
Description: Cytotoxicity against mouse RAW264.7 cells after 24 hrs by MTT assay

[2] = system: RAW264.7; experiment: cells; details: Mus musculus
Description: Antiinflammatory activity in mouse RAW264.7 cells assessed as inhibition of LPS-induced nitric oxide production treated for 30 mins before LPS challenge measured after 24 hrs by Griess reagent method

[3] = biological target: T1, Tyrosinase (Agaricus bisporus, UniProt O42713)
T1 sequence (O42713 whole entry): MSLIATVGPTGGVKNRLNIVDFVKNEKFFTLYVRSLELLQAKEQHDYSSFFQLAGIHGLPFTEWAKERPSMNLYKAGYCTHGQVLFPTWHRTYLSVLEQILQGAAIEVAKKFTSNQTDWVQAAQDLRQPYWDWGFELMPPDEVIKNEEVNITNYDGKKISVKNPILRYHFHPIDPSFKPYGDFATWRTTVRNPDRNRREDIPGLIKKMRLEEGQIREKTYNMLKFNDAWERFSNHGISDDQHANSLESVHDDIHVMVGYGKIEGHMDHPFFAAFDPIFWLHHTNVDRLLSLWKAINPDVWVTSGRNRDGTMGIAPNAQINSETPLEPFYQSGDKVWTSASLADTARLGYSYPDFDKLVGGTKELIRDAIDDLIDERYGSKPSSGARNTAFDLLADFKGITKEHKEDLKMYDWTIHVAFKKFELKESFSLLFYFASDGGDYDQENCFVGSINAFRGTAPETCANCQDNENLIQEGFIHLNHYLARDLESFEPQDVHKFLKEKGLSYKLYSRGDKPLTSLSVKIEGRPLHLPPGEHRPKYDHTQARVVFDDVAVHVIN
Description: Inhibition of mushroom tyrosinase after 20 mins by microplate reader analysis

Structure (SMILES) | IC50 [1] [µM] | IC50 [2] [µM] | IC50 [3] [µM]
CCCSCc1cc(=O)c(O)co1 | > 100 | > 100 | 1.93
CCCCCSCc1cc(=O)c(O)co1 | > 100 | 62 | 0.097
CCCCSCc1cc(=O)c(O)co1 | > 100 | > 100 | 1.48
CCCCC[S+]([O-])Cc1cc(=O)c(O)co1 (configuration not stated) | > 100 | > 100 | 79.9
CCSCc1cc(=O)c(O)co1 | > 100 | > 100 | 2.6
O=c1cc(C[S+]([O-])C2CCCCC2)occ1O (configuration not stated) | > 100 | > 100 | 79
O=c1cc(CSC2CCCCC2)occ1O | > 100 | 56.9 | 0.087
CCCCCC[S+]([O-])Cc1cc(=O)c(O)co1 (configuration not stated) | > 100 | > 100 | 73.8
CCCCCCSCc1cc(=O)c(O)co1 | > 100 | 25.8 | 0.19

Now from value to compound:

IC50 [1] [µM] | IC50 [2] [µM] | IC50 [3] [µM] | Structure (SMILES)
98.3 | > 100 | 2.65 | CCCCCCCSCc1cc(=O)c(O)co1
> 100 | > 100 | 46.2 | CCCCCCCCSCc1cc(=O)c(O)co1
> 100 | > 100 | 49.1 | CCCCCCS(=O)(=O)Cc1cc(=O)c(O)co1
> 100 | > 100 | 76.6 | CCCCCS(=O)(=O)Cc1cc(=O)c(O)co1
> 100 | > 100 | 69 | O=c1cc(CS(=O)(=O)C2CCCCC2)occ1O
